Assay [1] concerns the target T1, TREK-2 (Homo sapiens, UniProt P57789).
T1 sequence (P57789 1-538): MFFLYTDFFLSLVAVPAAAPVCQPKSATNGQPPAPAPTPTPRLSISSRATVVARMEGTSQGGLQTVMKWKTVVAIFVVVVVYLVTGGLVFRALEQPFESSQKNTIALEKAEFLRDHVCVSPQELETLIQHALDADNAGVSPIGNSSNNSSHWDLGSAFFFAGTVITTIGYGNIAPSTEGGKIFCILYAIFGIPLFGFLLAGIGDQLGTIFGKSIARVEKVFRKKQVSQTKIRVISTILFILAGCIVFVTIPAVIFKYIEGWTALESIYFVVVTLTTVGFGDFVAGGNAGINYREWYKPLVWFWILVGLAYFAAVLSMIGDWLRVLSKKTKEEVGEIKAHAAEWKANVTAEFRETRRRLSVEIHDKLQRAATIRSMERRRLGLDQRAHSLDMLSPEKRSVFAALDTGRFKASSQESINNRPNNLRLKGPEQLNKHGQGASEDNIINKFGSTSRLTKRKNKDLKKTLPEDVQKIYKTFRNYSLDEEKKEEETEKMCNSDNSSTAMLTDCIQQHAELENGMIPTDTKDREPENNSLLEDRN
As to the kind of experiment: manual patch clamp (MPC) assay, TREK-2, species not stated. The format is cell-based. In general terms: In patch-clamp work, channel activity is measured electrically.

Another assay has as its target Dopamine D4.2 (Homo sapiens, UniProt P21917, DEL265-296). As to the kind of experiment: Eurofins Lead Profiling radioligand binding. The conditions noted are these: title: 30 μM.
The subject of assay [2] is GABAA, Flunitrazepam, Central. As to the kind of experiment: Eurofins Lead Profiling radioligand binding. More on the design: species or system Rat. The conditions noted are these: title: 30 μM.
For the next assay, the target named is Glucocorticoid (Homo sapiens, UniProt P04150). The assay can be described thus: Eurofins Lead Profiling radioligand binding. The conditions noted are these: title: 30 μM.
Glucocorticoid, sequence (P04150 whole entry): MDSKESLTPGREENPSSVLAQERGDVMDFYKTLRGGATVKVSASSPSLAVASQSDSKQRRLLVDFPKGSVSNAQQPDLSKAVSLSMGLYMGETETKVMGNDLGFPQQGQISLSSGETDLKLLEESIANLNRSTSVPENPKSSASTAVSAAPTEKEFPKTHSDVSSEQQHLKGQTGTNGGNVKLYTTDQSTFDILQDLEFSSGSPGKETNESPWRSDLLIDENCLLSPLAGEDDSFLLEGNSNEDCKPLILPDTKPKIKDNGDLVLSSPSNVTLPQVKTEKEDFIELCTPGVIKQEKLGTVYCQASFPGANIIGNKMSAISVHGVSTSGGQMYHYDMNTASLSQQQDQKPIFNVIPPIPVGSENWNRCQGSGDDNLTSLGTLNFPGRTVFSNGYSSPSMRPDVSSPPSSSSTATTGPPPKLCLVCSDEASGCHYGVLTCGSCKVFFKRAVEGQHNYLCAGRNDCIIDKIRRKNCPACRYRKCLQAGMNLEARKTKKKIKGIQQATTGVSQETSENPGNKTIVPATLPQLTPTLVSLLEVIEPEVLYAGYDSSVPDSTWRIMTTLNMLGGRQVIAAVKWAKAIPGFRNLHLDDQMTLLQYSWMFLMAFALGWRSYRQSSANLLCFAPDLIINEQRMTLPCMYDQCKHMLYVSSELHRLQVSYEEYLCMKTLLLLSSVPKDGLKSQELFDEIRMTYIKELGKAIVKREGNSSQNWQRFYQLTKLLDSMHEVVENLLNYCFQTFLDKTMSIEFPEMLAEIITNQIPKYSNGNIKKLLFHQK
For assay [3], the target named is Transporter, Dopamine (DAT) (Homo sapiens, UniProt Q01959). The assay can be described thus: Eurofins Lead Profiling radioligand binding. The conditions noted are these: title: 30 μM.
Transporter, Dopamine (DAT), sequence (Q01959 whole entry): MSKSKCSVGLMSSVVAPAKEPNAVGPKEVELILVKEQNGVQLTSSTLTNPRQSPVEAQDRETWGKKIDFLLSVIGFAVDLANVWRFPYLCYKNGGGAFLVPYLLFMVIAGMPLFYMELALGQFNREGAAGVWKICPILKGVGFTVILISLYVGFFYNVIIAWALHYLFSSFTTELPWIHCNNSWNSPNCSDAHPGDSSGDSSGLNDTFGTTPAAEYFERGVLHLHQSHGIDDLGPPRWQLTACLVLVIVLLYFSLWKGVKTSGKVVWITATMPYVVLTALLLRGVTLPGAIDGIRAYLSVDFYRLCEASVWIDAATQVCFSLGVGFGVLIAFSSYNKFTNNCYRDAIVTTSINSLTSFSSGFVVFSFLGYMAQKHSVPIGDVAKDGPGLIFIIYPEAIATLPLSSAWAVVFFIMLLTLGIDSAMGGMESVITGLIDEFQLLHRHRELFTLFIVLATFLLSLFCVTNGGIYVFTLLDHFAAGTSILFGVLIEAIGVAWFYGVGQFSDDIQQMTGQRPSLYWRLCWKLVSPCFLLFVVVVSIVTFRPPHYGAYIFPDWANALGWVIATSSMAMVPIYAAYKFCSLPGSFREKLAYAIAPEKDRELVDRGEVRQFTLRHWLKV
Another assay deals with Glutamate, NMDA, Agonism. As to the kind of experiment: Eurofins Lead Profiling radioligand binding. More on the design: species or system Rat. The conditions noted are these: title: 30 μM.
Another assay has as its target Neuropeptide Y Y2 (Homo sapiens, UniProt P49146). As to the kind of experiment: Eurofins Lead Profiling radioligand binding. The conditions noted are these: title: 30 μM.
The target in assay [4] is T1, TREK-2. As to the kind of experiment: human 86Rb flux K2P selectivity panel. Type of assay: cell-based.

Here are results for two compounds from paper PMC11887051, “Discovery of ONO-2920632 (VU6011887): A Highly Selective and CNS Penetrant TREK-2 (TWIK-Related K+ Channel 2) Preferring Activator In Vivo Tool Compound” (ACS Chemical Neuroscience, 2025).

The term EC50 denotes the concentration that produces a half-maximal response. High values mean a need for much substance, low ones an effect from little substance. By Emax is commonly meant the maximal effect, on the per cent scale that the assay sets. For orientation: inhibition means the relative decrease from the control value, in per cent. In general, % Inhibition refers to the change of the read-out against control, counted positive when it falls.

Dopamine D4.2, sequence (P21917 with tags, fused parts or gaps DEL265-296): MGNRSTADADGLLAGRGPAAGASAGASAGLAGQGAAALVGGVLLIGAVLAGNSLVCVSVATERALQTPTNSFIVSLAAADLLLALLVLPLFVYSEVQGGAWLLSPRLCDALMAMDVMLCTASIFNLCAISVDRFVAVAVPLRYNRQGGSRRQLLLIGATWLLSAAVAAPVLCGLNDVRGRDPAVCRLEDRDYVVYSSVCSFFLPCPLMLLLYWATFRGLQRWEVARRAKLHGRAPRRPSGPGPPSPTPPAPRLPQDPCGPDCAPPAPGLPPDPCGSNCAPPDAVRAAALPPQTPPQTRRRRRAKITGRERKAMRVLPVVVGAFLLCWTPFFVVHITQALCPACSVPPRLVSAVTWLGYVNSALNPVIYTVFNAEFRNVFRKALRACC
Neuropeptide Y Y2, sequence (P49146 whole entry): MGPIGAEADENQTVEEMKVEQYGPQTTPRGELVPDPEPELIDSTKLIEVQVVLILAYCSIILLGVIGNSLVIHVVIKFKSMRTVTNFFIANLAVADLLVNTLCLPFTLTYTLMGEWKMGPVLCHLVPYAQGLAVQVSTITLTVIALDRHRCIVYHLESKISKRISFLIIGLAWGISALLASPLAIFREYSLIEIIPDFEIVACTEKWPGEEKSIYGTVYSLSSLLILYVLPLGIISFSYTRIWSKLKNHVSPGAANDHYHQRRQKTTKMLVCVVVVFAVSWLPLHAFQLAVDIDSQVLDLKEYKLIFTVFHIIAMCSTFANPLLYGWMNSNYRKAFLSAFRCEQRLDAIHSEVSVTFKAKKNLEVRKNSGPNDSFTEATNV

With `CS(=O)(=O)Nc1ccc(C(=O)NCc2ccc(Cl)cc2Cl)cc1` [Compound 13], the “selectivity for TREK-2 in MPC assay” value on TREK-2 [1] (TREK-2 over TREK-1, manual patch clamp) is about 8 fold. On TREK-2 [1] (manual patch clamp), this compound showed an EC50 of 950 nM and an Emax of 126%.
As to `O=C(NCc1ccc(OC(F)(F)F)cc1F)c1ccc2ncnn2c1` [Compound 19b], the inhibition is 15% at Dopamine D4.2, 7% on Glucocorticoid, 14% in assay [3] and -1% at Neuropeptide Y Y2. The “% Inhibition at 10 µM” value is given as 0% in assay [2] and -3% in the assay with Glutamate, NMDA, Agonism. Besides, the “TREK-2 preference in 86Rb flux assay” value at TREK-2 [4] (TREK-2 over TREK-1) is about 46 fold. The “activity at TREK-2 in 86Rb flux panel” value on TREK-2 [4] (data is not shown) is listed as “submicromolar activity”.
